Columns and labels:
CDK2/Cyclin E1 = CDK2/Cyclin E1 (Homo sapiens, UniProt P24941); assay: CDK2/Cyclin E1 TR-FRET biochemical assay, 1 mM ATP; details: 0.15 μM Rb (Ser780)-biotin substrate, 90 min reaction, Table 2
CDK1/Cyclin B1 = CDK1/Cyclin B1 (Homo sapiens, UniProt P06493); assay: CDK1/Cyclin B1 TR-FRET biochemical assay, 1 mM ATP; details: 0.15 μM Rb (Ser780)-biotin substrate, 90 min reaction, Table 2
CDK1/Cyclin B1, sequence (P06493 whole entry): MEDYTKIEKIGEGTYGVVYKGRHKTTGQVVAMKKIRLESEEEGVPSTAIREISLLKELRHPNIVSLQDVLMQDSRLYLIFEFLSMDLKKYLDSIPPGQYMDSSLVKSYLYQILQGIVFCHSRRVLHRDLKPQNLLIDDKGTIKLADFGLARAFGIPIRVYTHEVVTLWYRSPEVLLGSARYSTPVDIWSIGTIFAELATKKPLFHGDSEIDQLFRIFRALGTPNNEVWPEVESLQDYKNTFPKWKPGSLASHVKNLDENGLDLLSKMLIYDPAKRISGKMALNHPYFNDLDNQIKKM
CDK1/Cyclin B1, sequence (P14635 whole entry partner): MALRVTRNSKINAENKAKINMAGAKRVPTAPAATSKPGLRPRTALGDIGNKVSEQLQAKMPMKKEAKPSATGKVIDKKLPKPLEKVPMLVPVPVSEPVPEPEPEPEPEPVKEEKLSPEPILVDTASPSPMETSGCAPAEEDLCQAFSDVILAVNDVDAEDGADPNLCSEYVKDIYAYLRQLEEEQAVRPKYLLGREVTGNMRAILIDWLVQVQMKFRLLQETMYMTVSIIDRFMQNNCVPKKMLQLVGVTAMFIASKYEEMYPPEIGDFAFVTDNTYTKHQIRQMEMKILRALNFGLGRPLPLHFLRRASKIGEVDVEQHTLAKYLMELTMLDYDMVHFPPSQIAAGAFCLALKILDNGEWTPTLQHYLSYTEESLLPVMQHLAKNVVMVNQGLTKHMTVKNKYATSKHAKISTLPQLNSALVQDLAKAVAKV

SMILES: CC(C)c1cnc(C2CCC(c3cc(Nc4ccc5c(c4F)CS(=O)(=O)N5)n[nH]3)C2)o1 (single isomer, unassigned) [Example 152a, cis-4-fluoro-5-((5-(3-(5-isopropyloxazol-2-yl)cyclopentyl)-1H-pyrazol-3-yl)amino)-1,3-dihydrobenzo[c]isothiazole 2,2-dioxide]
- IC50 (CDK2/Cyclin E1): 2.8 nM
- IC50 (CDK1/Cyclin B1): 238 nM

SMILES: CC(C)(C)c1cnc(C2CCC(c3cc(Nc4cc5c(cc4F)S(=O)(=O)NC5)n[nH]3)C2)o1 (single isomer, unassigned) [Example 17d, 5-((5-(3-(5-(tert-butyl)oxazol-2-yl)cyclopentyl)-1H-pyrazol-3-yl)amino)-6-fluoro-2,3-dihydrobenzo[d]isothiazole 1,1-dioxide]
- IC50 (CDK2/Cyclin E1): 2870 nM
- IC50 (CDK1/Cyclin B1): > 10000 nM

SMILES: CCc1ccnc(C2CCC(c3cc(Nc4ccc5c(c4F)CNS5(=O)=O)n[nH]3)C2)n1 (stereo not shown) [Example 125, 5-((5-(3-(4-ethylpyrimidin-2-yl)cyclopentyl)-1H-pyrazol-3-yl)amino)-4-fluoro-2,3-dihydrobenzo[d]isothiazole 1,1-dioxide]
- IC50 (CDK2/Cyclin E1): 40 nM
- IC50 (CDK1/Cyclin B1): 2760 nM

SMILES: CC(C)(C)c1cccc(C2CCC(c3cc(Nc4ccc5c(c4F)CS(=O)(=O)N5)n[nH]3)C2)n1 (stereo not shown) [Example 158, 5-((5-(3-(6-(tert-butyl)pyridin-2-yl)cyclopentyl)-1H-pyrazol-3-yl)amino)-4-fluoro-1,3-dihydrobenzo[c]isothiazole 2,2-dioxide]
- IC50 (CDK2/Cyclin E1): 84 nM
- IC50 (CDK1/Cyclin B1): 3930 nM

SMILES: COC(=O)c1nc(C2CCC(c3cc(Nc4ccc5c(c4F)CNS5(=O)=O)n[nH]3)C2)oc1C(C)(C)C (stereo not shown) [Example 113, methyl 5-(tert-butyl)-2-(3-(3-((4-fluoro-1,1-dioxido-2,3-dihydrobenzo[d]isothiazol-5-yl)amino)-1H-pyrazol-5-yl)cyclopentyl)oxazole-4-carboxylate]
- IC50 (CDK2/Cyclin E1): 235 nM
- IC50 (CDK1/Cyclin B1): > 10000 nM

SMILES: CC(C)(C)c1coc(C2CCC(c3cc(Nc4ccc5c(c4F)CNS5(=O)=O)n[nH]3)C2)n1 (stereo not shown) [Example 94, 5-((5-(3-(4-(tert-butyl)oxazol-2-yl)cyclopentyl)-1H-pyrazol-3-yl)amino)-4-fluoro-2,3-dihydrobenzo[d]isothiazole 1,1-dioxide]
- IC50 (CDK2/Cyclin E1): 417 nM
- IC50 (CDK1/Cyclin B1): > 10000 nM

SMILES: NS(=O)(=O)c1ccc(Nc2cc(C3CCC(c4ncc(C5CC5)o4)C3)[nH]n2)c(F)c1 (stereo not shown) [Example 9, 4-((5-(3-(5-cyclopropyloxazol-2-yl)cyclopentyl)-1H-pyrazol-3-yl)amino)-3-fluorobenzenesulfonamide]
- IC50 (CDK2/Cyclin E1): 131 nM
- IC50 (CDK1/Cyclin B1): > 10000 nM

SMILES: Cc1nc(C2CCC(c3cc(Nc4cc5c(cc4F)S(=O)(=O)NC5)n[nH]3)C2)oc1C(C)(C)C (stereo not shown) [Example 19, 5-((5-(3-(5-(tert-butyl)-4-methyloxazol-2-yl)cyclopentyl)-1H-pyrazol-3-yl)amino)-6-fluoro-2,3-dihydrobenzo[d]isothiazole 1,1-dioxide]
- IC50 (CDK2/Cyclin E1): 43 nM
- IC50 (CDK1/Cyclin B1): > 10000 nM

SMILES: CC(C)(C)c1cnnc(C2CCC(c3cc(Nc4ccc5c(c4F)CS(=O)(=O)N5)n[nH]3)C2)c1 (stereo not shown) [Example 163, 5-((5-(3-(5-(tert-butyl)pyridazin-3-yl)cyclopentyl)-1H-pyrazol-3-yl)amino)-4-fluoro-1,3-dihydrobenzo[c]isothiazole 2,2-dioxide]
- IC50 (CDK2/Cyclin E1): 16 nM
- IC50 (CDK1/Cyclin B1): 2020 nM

SMILES: CC(C)c1cnc(C2CCC(c3cc(Nc4cc5c(cc4F)S(=O)(=O)NC5)n[nH]3)C2)o1 (stereo not shown) [Example 18, 6-fluoro-5-((5-(3-(5-isopropyloxazol-2-yl)cyclopentyl)-1H-pyrazol-3-yl)amino)-2,3-dihydrobenzo[d]isothiazole 1,1-dioxide]
- IC50 (CDK2/Cyclin E1): 42 nM
- IC50 (CDK1/Cyclin B1): > 10000 nM

SMILES: CC(C)c1cnc(C2CCC(c3cc(Nc4ccc5c(c4)CN=S5(C)=O)n[nH]3)C2)o1 (stereo not shown) [Example 168, 5-((5-(3-(5-isopropyloxazol-2-yl)cyclopentyl)-1H-pyrazol-3-yl)amino)-1-methyl-3H-1λ^4-benzo[d]isothiazole 1-oxide]
- IC50 (CDK2/Cyclin E1): 15 nM
- IC50 (CDK1/Cyclin B1): 2350 nM

SMILES: CC(C)c1ccnc(C2CCC(c3cc(Nc4ccc5c(c4F)CNS5(=O)=O)n[nH]3)C2)n1 (stereo not shown) [Example 126, 4-fluoro-5-((5-(3-(4-isopropylpyrimidin-2-yl)cyclopentyl)-1H-pyrazol-3-yl)amino)-2,3-dihydrobenzo[d]isothiazole 1,1-dioxide]
- IC50 (CDK2/Cyclin E1): 3.9 nM
- IC50 (CDK1/Cyclin B1): 669 nM

SMILES: CC(C)(C)c1cnc(C2CCC(c3cc(Nc4ccc5c(c4F)CN=S5(C)=O)n[nH]3)C2)o1 (stereo not shown) [Example 171, 5-((5-(3-(5-(tert-butyl)oxazol-2-yl)cyclopentyl)-1H-pyrazol-3-yl)amino)-4-fluoro-1-methyl-3H-1λ^4-benzo[d]isothiazole 1-oxide]
- IC50 (CDK2/Cyclin E1): 2 nM
- IC50 (CDK1/Cyclin B1): 348 nM

SMILES: CC(C)c1ccnc(C2CCC(c3cc(Nc4ccc(S(N)(=O)=O)cc4F)n[nH]3)C2)n1 (stereo not shown) [Example 5, 3-fluoro-4-((5-(3-(4-isopropylpyrimidin-2-yl)cyclopentyl)-1H-pyrazol-3-yl)amino)benzenesulfonamide]
- IC50 (CDK2/Cyclin E1): 4.6 nM
- IC50 (CDK1/Cyclin B1): 656 nM

SMILES: CC(C)c1ccnc(C2CCC(c3cc(Nc4ccc5c(c4F)CNS5(=O)=O)n[nH]3)C2)c1 (stereo not shown) [Example 122, 4-fluoro-5-((5-(3-(4-isopropylpyridin-2-yl)cyclopentyl)-1H-pyrazol-3-yl)amino)-2,3-dihydrobenzo[d]isothiazole 1,1-dioxide]
- IC50 (CDK2/Cyclin E1): 72 nM
- IC50 (CDK1/Cyclin B1): > 10000 nM

SMILES: CC(C)(C)c1ccnnc1O[C@H]1CC[C@H](c2cc(Nc3ccc4c(c3F)CNS4(=O)=O)n[nH]2)C1 (relative stereo) [Example 36, trans-5-((5-(3-((4-(tert-butyl)pyridazin-3-yl)oxy)cyclopentyl)-1H-pyrazol-3-yl)amino)-4-fluoro-2,3-dihydrobenzo[d]isothiazole 1,1-dioxide]
- IC50 (CDK2/Cyclin E1): > 10000 nM
- IC50 (CDK1/Cyclin B1): > 10000 nM

SMILES: CC(C)(C)c1cnc(C2CCC(c3cc(Nc4ccc(S(N)(=O)=O)cc4F)n[nH]3)C2)o1 (single isomer, unassigned) [Example 6b, 4-((5-(3-(5-(tert-butyl)oxazol-2-yl)cyclopentyl)-1H-pyrazol-3-yl)amino)-3-fluorobenzenesulfonamide]
- IC50 (CDK2/Cyclin E1): 88 nM
- IC50 (CDK1/Cyclin B1): > 10000 nM

SMILES: CC(C)(C)c1ccc(C2CCC(c3cc(Nc4ccc5c(c4F)CNS5(=O)=O)[nH]n3)C2)nc1 (stereo not shown) [Example 119, 5-((3-(3-(5-(tert-butyl)pyridin-2-yl)cyclopentyl)-1H-pyrazol-5-yl)amino)-4-fluoro-2,3-dihydrobenzo[d]isothiazole 1,1-dioxide]
- IC50 (CDK2/Cyclin E1): > 10000 nM
- IC50 (CDK1/Cyclin B1): > 10000 nM

SMILES: CC(C)(C)c1nnc([C@H]2CC[C@H](c3cc(Nc4ccc5c(c4F)CNS5(=O)=O)n[nH]3)C2)o1 (relative stereo) [Example 97, trans-5-((5-(3-(5-(tert-butyl)-1,3,4-oxadiazol-2-yl)cyclopentyl)-1H-pyrazol-3-yl)amino)-4-fluoro-2,3-dihydrobenzo[d]isothiazole 1,1-dioxide]
- IC50 (CDK2/Cyclin E1): 3180 nM
- IC50 (CDK1/Cyclin B1): > 10000 nM

SMILES: CC(C)(C)c1cnc(C2CCC(c3cc(Nc4ccc(S(N)(=O)=O)cc4F)n[nH]3)C2)o1 (single isomer, unassigned) [Example 6a, 4-((5-(3-(5-(tert-butyl)oxazol-2-yl)cyclopentyl)-1H-pyrazol-3-yl)amino)-3-fluorobenzenesulfonamide]
- IC50 (CDK2/Cyclin E1): 3 nM
- IC50 (CDK1/Cyclin B1): 2000 nM

SMILES: CC(C)c1cnc(C2CCC(c3cc(Nc4ccc5c(c4)CS(=O)(=O)N5)n[nH]3)C2)o1 (single isomer, unassigned) [Example 138b, cis-5-((5-(3-(5-isopropyloxazol-2-yl)cyclopentyl)-1H-pyrazol-3-yl)amino)-1,3-dihydrobenzo[c]isothiazole 2,2-dioxide]
- IC50 (CDK2/Cyclin E1): 12 nM
- IC50 (CDK1/Cyclin B1): 2420 nM

SMILES: CC(C)(C)c1ncccc1O[C@@H]1CC[C@H](c2cc(Nc3ccc4c(c3)CS(=O)(=O)N4)n[nH]2)C1 (relative stereo) [Example 139, cis-5-((5-(3-((2-(tert-butyl)pyridin-3-yl)oxy)cyclopentyl)-1H-pyrazol-3-yl)amino)-1,3-dihydrobenzo[c]isothiazole 2,2-dioxide]
- IC50 (CDK2/Cyclin E1): 54 nM
- IC50 (CDK1/Cyclin B1): 5710 nM

SMILES: CC(C)(C)c1cnnc(C2CCC(c3cc(Nc4ccc(S(N)(=O)=O)cc4F)n[nH]3)C2)c1 (stereo not shown) [Example 3, 4-((5-(3-(5-(tert-butyl)pyridazin-3-yl)cyclopentyl)-1H-pyrazol-3-yl)amino)-3-fluorobenzenesulfonamide]
- IC50 (CDK2/Cyclin E1): 147 nM
- IC50 (CDK1/Cyclin B1): > 10000 nM

SMILES: Cc1cccc(C2CCC(c3cc(Nc4ccc5c(c4F)CS(=O)(=O)N5)n[nH]3)C2)n1 (stereo not shown) [Example 159, 4-fluoro-5-((5-(3-(6-methylpyridin-2-yl)cyclopentyl)-1H-pyrazol-3-yl)amino)-1,3-dihydrobenzo[c]isothiazole 2,2-dioxide]
- IC50 (CDK2/Cyclin E1): 1040 nM
- IC50 (CDK1/Cyclin B1): > 10000 nM

SMILES: CC(C)(C)n1cc(C2CCC(c3cc(Nc4ccc5c(c4F)CNS5(=O)=O)n[nH]3)C2)cn1 (stereo not shown) [Example 99, 5-((5-(3-(1-(tert-butyl)-1H-pyrazol-4-yl)cyclopentyl)-1H-pyrazol-3-yl)amino)-4-fluoro-2,3-dihydrobenzo[d]isothiazole 1-dioxide]
- IC50 (CDK2/Cyclin E1): 3290 nM
- IC50 (CDK1/Cyclin B1): > 10000 nM

SMILES: Cc1cccc(C2CCC(c3cc(Nc4ccc5c(c4F)CNS5(=O)=O)n[nH]3)C2)n1 (stereo not shown) [Example 120, 4-fluoro-5-((5-(3-(6-methylpyridin-2-yl)cyclopentyl)-1H-pyrazol-3-yl)amino)-2,3-dihydrobenzo[d]isothiazole 1,1-dioxide]
- IC50 (CDK2/Cyclin E1): 4410 nM
- IC50 (CDK1/Cyclin B1): > 10000 nM

From patent publication US20260200897A1, “4-((5-(3-(4-(PYRIDIN-2-YL)CYCLOPENTYL)-1H-PYRAZOL-3-YL)AMINO)-BENZENESULFONAMIDE DERIVATIVES AND SIMILAR COMPOUNDS AS CDK INHIBITORS FOR THE TREATMENT OF CANCER” (BeOne Medicines I GmbH, priority 2023, published 2026)
